As usually defined, the viability is a read-out of living cells in per cent, often relative to untreated cells.

The first data set can be described thus: in vitro. Conditions: human, hela cells, % viability.
As to `CCc1nnc(SCC(=O)N2c3ccccc3Sc3ccccc32)[nH]1` [CBK268687], the viability at 28.5 h, 10 µM is 110%.

On to `CCn1c(Cc2ccccc2)nnc1SCC(=O)Nc1cc(Cl)ccc1O` [CBK268689], for which the viability at 28.5 h, 10 µM stood at 104%. As to `COc1ccc(C(=O)NCCCSc2nc(C(C)(C)C)cc(C(F)(F)F)n2)cc1` [CBK268690], the viability at 28.5 h, 10 µM is 99.7%. Still for that read-out and setting: in the case of `CSc1ncc(Cl)c(C(=O)Nc2nnc(SC/C=C/c3ccccc3)s2)n1` [CBK268691] it was 93.5%; in that of `Cc1cc(C)c(NC(=O)CSc2nc(C)c(Cc3ccccc3Cl)c(O)n2)c([N+](=O)[O-])c1` [CBK268693], 90.4%. On to `CCN(CC(=O)O)S(=O)(=O)c1cc(C)ccc1OC` [CBK268694], for which the viability at 28.5 h, 10 µM was 98.7%. On the same count and under the same terms, in the case of `CC(C)C(NS(=O)(=O)c1ccc(I)cc1)C(=O)O` (stereo not shown) [CBK268703] it was 106%. Same read-out and setting: in the case of `COC(=O)CC1C(=O)NCCN1C(=S)NC(=O)c1ccc(-c2ccccc2)cc1` (stereo not shown) [CBK268711] it was 105%; in that of `O=C(c1nc(SCc2ccccc2)ncc1Cl)N1CCN(c2cccc(Cl)c2)CC1` [CBK268712], 113%; in that of `O=C1CC(N2CCN(c3ccc(S(=O)(=O)N4CCOCC4)cc3)CC2)C(=O)N1Cc1ccccc1` (stereo not shown) [CBK268713], 107%.

In the case of `COC(=O)c1ccc(N2C(=O)CC(N3CCC(n4c(=O)[nH]c5ccccc54)CC3)C2=O)cc1` (stereo not shown) [CBK268714], the viability at 28.5 h, 10 µM is 94.6%. Regarding `O=C(CCS(=O)(=O)c1nc(-c2ccccc2)cc(C(F)(F)F)n1)Nc1ccc(Cl)cc1Cl` [CBK268717], the viability at 28.5 h, 10 µM came out at 84.9%. With `CCOC(=O)c1ccc(N2C(=O)CC(N3CCCc4ccccc43)C2=O)cc1` (stereo not shown) [CBK268720], the viability at 28.5 h, 10 µM turned out to be 109%. As to `CCOC(=O)c1ccc(N2C(=O)CC(N3CCN(c4ccc(S(C)(=O)=O)cc4)CC3)C2=O)cc1` (stereo not shown) [CBK268721], the viability at 28.5 h, 10 µM was 103%. On the same count and under the same terms, as for `Cc1ccc(OCC(=O)Nc2ccccc2N2CCN(S(C)(=O)=O)CC2)cc1` [CBK268722], the figure is 84%; as for `C=CCn1c(SCC(=O)Nc2ccnc3ccccc23)nnc1-c1cccnc1` [CBK268723], 88.6%; as for `Cc1ccc(C(C)C)c(OCC(=O)Nc2cc(-c3nc4ccccc4[nH]3)ccc2C)c1` [CBK268724], 80.7%. Take `COc1ccc(N2CCN(CCNC(=O)Nc3ccc(Cl)cc3)CC2)cc1` [CBK268725]: the viability at 28.5 h, 10 µM was 94.9%. In the case of `O=C(NC(=S)Nc1ccc2c(c1)Cc1ccccc1-2)c1cc([N+](=O)[O-])ccc1N1CCOCC1` [CBK268726], the viability at 28.5 h, 10 µM was found to be 104%. Regarding `CCOc1ccccc1-c1nnc(SCC(=O)NC2CCCCC2)o1` [CBK268728], the viability at 28.5 h, 10 µM is 106%.

On to `CCn1c(SCC(=O)Nc2ccc([N+](=O)[O-])cc2O)nnc1-c1ccccc1` [CBK268730], for which the viability at 28.5 h, 10 µM came out at 87.2%.

For `COC(=O)c1ccccc1OC(=O)COc1ccc(Cl)cc1Br` [CBK268733], the viability at 28.5 h, 10 µM was 83.7%. Still for that read-out and setting: as for `O=C(O)CCSc1nnc(-c2cccnc2)n1-c1ccccc1` [CBK268734], the figure is 102%. On to `Cc1cc(-c2nnc(SCCC(=O)Nc3ccccc3)o2)no1` [CBK268737], for which the viability at 28.5 h, 10 µM turned out to be 104%. Same read-out and setting: in the case of `COc1cc(/C=C(/C#N)c2ccc(C(=O)O)cc2)c([N+](=O)[O-])cc1OCc1ccccc1` [CBK268738] it was 92%.

Take `O=C(CN(c1ccccc1)S(=O)(=O)c1ccc(F)cc1)Nc1ccc(Cl)c(Cl)c1` [CBK268740]: the viability at 28.5 h, 10 µM is 86.6%. Still for that read-out and setting: as for `CCOC(=O)N1CCN(CC(=O)N2c3ccccc3CCc3ccccc32)CC1` [CBK268744G], the figure is 111%. `Cc1cc2nc(/C(C#N)=C/c3ccncc3)[nH]c2cc1C` [CBK268745]: the viability at 28.5 h, 10 µM turned out to be 87.7%. Still for that read-out and setting: as for `CCOC(=O)C1=C(CSc2nccn2C)NC(=O)NC1c1ccc2c(c1)OCO2` (stereo not shown) [CBK268746], the figure is 85.5%; as for `Cc1cc([N+](=O)[O-])nn1CCCC(=O)Nc1cccc(O)c1` [CBK268747], 87.1%; as for `O=S(=O)(NCc1ccco1)N1CCOCC1` [CBK268749], 90.2%. Same read-out and setting: in the case of `COc1ccc(C)cc1S(=O)(=O)N(C)CC(=O)Nc1cccc(C(C)=O)c1` [CBK268753] it was 102%; in that of `CC(=O)Nc1ccc(OC(=O)CSc2nc(C)cc(-c3ccccc3)n2)cc1` [CBK268754], 94.7%; in that of `O=C(Cc1coc2ccc3ccccc3c12)NNC(=O)c1ccccc1[N+](=O)[O-]` [CBK268763], 90.6%.

In the case of `CCOc1cc(/C=C(/C#N)C(N)=S)ccc1OCC(=O)N1CCCC1` [CBK268765], the viability at 28.5 h, 10 µM worked out at 91.3%. Still for that read-out and setting: in the case of `COc1cc(S(=O)(=O)N2CCC(C(N)=O)CC2)ccc1Br` [CBK268766] it was 82.6%; in that of `Cc1cccc(NS(=O)(=O)c2cc(C(=O)NCc3ccccn3)ccc2C)c1` [CBK268767], 70.7%. Same read-out and setting: in the case of `Cc1ccc(-n2c(SCC(=O)Nc3ccc(C)c([N+](=O)[O-])c3)nnc2-c2ccccc2O)c(C)c1` [CBK268769] it was 96.6%; in that of `CC(C(=O)Nc1ccc(F)c(F)c1)n1cc([N+](=O)[O-])cn1` (stereo not shown) [CBK268771], 92.9%; in that of `O=C(Nc1ccc(NC(=O)C2CC=CCC2C(=O)O)cc1Cl)C1CCCCC1` (stereo not shown) [CBK268772], 89.7%. For the compound `Cc1occc1-c1nnc(SCC(=O)c2ccc3c(c2)OCCO3)o1` [CBK268773], the viability at 28.5 h, 10 µM was 83.5%.

Regarding `Cc1ccc(-c2nc3ncccc3o2)cc1NC(=O)c1cccnc1` [CBK268774], the viability at 28.5 h, 10 µM turned out to be 100%. Consider `CSc1ncc(Cl)c(C(=O)Nc2ccc(S(=O)(=O)N3CCOCC3)cc2)n1` [CBK268775], for which the viability at 28.5 h, 10 µM is 106%. On the same count and under the same terms, as for `O=C(CSc1nnc(-c2cccnc2)s1)Nc1ccc([N+](=O)[O-])cc1` [CBK268777], the figure is 112%; as for `C=CCNC(=S)Nc1sc2c(c1C(=O)OCC)CC(C)CC2` (stereo not shown) [CBK268778], 89.8%.

For the compound `CCCOc1ccc(S(=O)(=O)NCc2ccncc2)c2ccccc12` [CBK268780], the viability at 28.5 h, 10 µM was 83.3%. The same measure, in the same setting: as for `CCOc1cc(Cl)c(S(=O)(=O)NCCCN2CCOCC2)cc1Cl` [CBK268781], the figure is 87.9%. Take `CSc1ncc(Cl)c(C(=O)Nc2nc(-c3ccc(S(=O)(=O)N4CCCCCC4)cc3)cs2)n1` [CBK268785]: the viability at 28.5 h, 10 µM was determined as 96.5%. With `N=c1n(CCCOc2ccc(Br)cc2)c2ccccc2n1CC(N)=O` [CBK268786C], the viability at 28.5 h, 10 µM amounted to 86.9%.

As to `Cn1c(Cc2csc(N)n2)nnc1SCC(=O)NC1CCCCC1` [CBK268787], the viability at 28.5 h, 10 µM was 84.3%. On the same count and under the same terms, as for `Cc1ccc(S(=O)(=O)NNC(=O)COc2cccc3cccnc23)cc1` [CBK268788], the figure is 90.1%; as for `c1ccc2[nH]c(NCCN3CCOCC3)nc2c1` [CBK268791], 96.7%; as for `COC(=O)C1=C(Cn2ccc(C(F)(F)F)n2)NC(=O)NC1c1cc(C)ccc1C` (stereo not shown) [CBK268792], 105%. Same read-out and setting: in the case of `Cc1ccc(N(C(C)C(=O)Nc2ccccc2C(F)(F)F)S(C)(=O)=O)cc1` (stereo not shown) [CBK268796] it was 84.5%; in that of `CCOC(=O)c1c(NC(=O)CSc2nnnn2C)sc(C)c1C` [CBK268798], 103%.

For `COc1cc(Cl)cc(C2NC(=S)NC(c3ccccc3)=C2C(C)=O)c1OCC(=O)O` (stereo not shown) [CBK268801], the viability at 28.5 h, 10 µM was 98.3%. On the same count and under the same terms, as for `CS(=O)(=O)Nc1cccc(C2=NN(C(=O)CCC(=O)O)C(c3cccc(F)c3)C2)c1` (stereo not shown) [CBK268804], the figure is 85%; as for `O=C(NCCN1CCOCC1)c1ccc2nccnc2c1` [CBK268806], 108%. In the case of `O=C(O)C(Cc1ccccc1)NS(=O)(=O)c1ccc(I)cc1` (stereo not shown) [CBK268807], the viability at 28.5 h, 10 µM amounted to 110%. The same measure, in the same setting: as for `Cc1ccccc1OCc1nnc(SCC(N)=O)n1-c1ccccc1` [CBK268808], the figure is 101%; as for `CC1CCc2c(sc3ncnc(NCCc4nc5ccccc5[nH]4)c23)C1` (stereo not shown) [CBK268809], 91.6%.

With `CCOc1cc(Br)ccc1S(=O)(=O)NCc1ccc2c(c1)OCO2` [CBK268813], the viability at 28.5 h, 10 µM is 108%. The same measure, in the same setting: in the case of `Cc1cccc(NS(=O)(=O)c2ccc(I)cc2)n1` [CBK268818] it was 87%; in that of `O=C(Cc1ccccc1)Nc1ccc(NC(=O)c2ccc(-c3ccccc3)cc2)cc1` [CBK268821], 87.2%; in that of `COc1ccccc1OCCn1c(=N)n(CC(N)=O)c2ccccc21` [CBK268822C], 88.6%. Same read-out and setting: as for `COc1ccc2cc(Br)ccc2c1CC(=O)Nc1ccccc1[N+](=O)[O-]` [CBK268823], the figure is 95.8%; as for `O=C(Nc1nc2ccc(Cl)cc2s1)c1nc(SCc2ccccc2)ncc1Cl` [CBK268825], 98.2%; as for `Cc1cc(-c2nnc(SCC(=O)N3CCCc4ccccc43)o2)no1` [CBK268828], 88%.

Consider `Cn1c2ccccc2c2nnc(SCCCC(=O)c3ccc(F)cc3)nc21` [CBK268830], for which the viability at 28.5 h, 10 µM came to 92.8%.

For `CCc1ccc(NC(=N)Nc2nc(CSc3ncccn3)cc(=O)[nH]2)cc1` [CBK268836], the viability at 28.5 h, 10 µM worked out at 88.1%. Regarding `Cc1nnc(SCc2cc(=O)[nH]c(N3CCN(Cc4ccccc4)CC3)n2)s1` [CBK268837], the viability at 28.5 h, 10 µM was 104%. Take `Cc1nnc(SCC(=O)Nn2c(-c3ccccc3)nc3ccccc3c2=O)[nH]1` [CBK268841]: the viability at 28.5 h, 10 µM stood at 86.8%.

The same data set, now with this note: human, hela cells, % viability, bulk resorufin, single well.
In the case of `Cc1cccc(N2C(=O)NC(=O)C(CCc3ccncc3)(CCc3ccncc3)C2=O)c1C` [CBK268705], the viability at 28.5 h, 10 µM was 93.9%. For `C=CCN1C(=O)NC(=O)C(CCc2ccccn2)(CCc2ccccn2)C1=O` [CBK268761], the viability at 28.5 h, 10 µM amounted to 104%. Consider `O=C1NC(=O)C(CCc2ccccn2)(CCc2ccccn2)C(=O)N1c1ccc(F)cc1` [CBK268816], for which the viability at 28.5 h, 10 µM was 93%. For `Cc1ccc(Cl)cc1N1C(=O)NC(=O)C(CCc2ccccn2)(CCc2ccccn2)C1=O` [CBK268838], the viability at 28.5 h, 10 µM turned out to be 98.6%.

Source of the values: paper PMC12040169 (PLOS Biology, 2025).
